What follows are cell lines tested with CCn1c(-c2nonc2N)nc2c(C#CC(C)(C)O)ncc(OC[C@H]3CCCNC3)c21 + CC(=O)Nc1cccc(-n2c(=O)n(C3CC3)c(=O)c3c(Nc4ccc(I)cc4F)n(C)c(=O)c(C)c32)c1 [Trametinib] (partner 0.02 µM) (assay: relative viability (nuclei count vs DMSO), 5 days (fraction); higher = more cells survive). Details: first compound 0.01 µM.
How it was run: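 After 5 days of treatment, lung cancer cells in 1536-well plates were fixed and stained in a single step (final 0.05% Triton X-100, 1% formaldehyde, 1 ug/ml Hoechst) and their nuclei counted on 4× images. Treatment had been applied by pin tool the day after seeding as one drug alone or as a fixed anchor-drug dose with five library-drug doses (not always all listed) in √10 steps. Relative viability is the nuclei count of treated wells divided by that of vehicle wells, and values are medians of duplicate plates.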

Row | Cell Line | relative viability
1 | NCI-H522 | 0.826
2 | NCI-H727 | 0.391
3 | NCI-H1650 | 0.548
4 | NCI-H1993 | 0.688
5 | SW 1573 | 0.438
6 | NCI-H838 | 0.534
7 | LCLC-103H | 0.615
8 | NCI-H520 | 0.645
9 | NCI-H2126 | 0.568
10 | EMC-BAC-2 | 0.864
11 | NCI-H2085 | 0.452
12 | HCC-366 | 0.391
13 | NCI-H1666 | 0.819
14 | NCI-H596 | 0.797
15 | LK-2 | 0.574
16 | NCI-H2087 | 0.23
17 | NCI-H2342 | 0.845

Row | Cell Line | relative viability
18 | SK-MES-1 | 0.61
19 | H3255 | 0.608
20 | COR-L23 | 0.625
21 | COR-L 105 | 0.451
22 | LOU-NH91 | 0.795
23 | ChaGo-K-1 | 0.843
24 | NCI-H2170 | 0.957
25 | NCI-H2405 | 0.664
26 | HOP-62 | 0.366
27 | HCC-44 | 1.03
28 | SW 900 | 0.635
29 | LU99A | 0.517
30 | BEN | 0.973
31 | HARA | 0.542
32 | NCI-H1648 | 0.46
33 | HCC-78 | 0.639

Same assay, conditions: first compound 0.03162 µM

Row | Cell Line | relative viability
34 | NCI-H522 | 0.763
35 | NCI-H727 | 0.359
36 | NCI-H1650 | 0.582
37 | NCI-H1993 | 0.493
38 | SW 1573 | 0.553
39 | NCI-H838 | 0.556
40 | LCLC-103H | 0.686
41 | NCI-H520 | 0.789
42 | NCI-H2126 | 0.566
43 | NCI-H2085 | 0.539
44 | HCC-366 | 0.312
45 | NCI-H1666 | 0.791
46 | LK-2 | 0.878
47 | NCI-H2342 | 0.848
48 | SK-MES-1 | 0.52
49 | H3255 | 0.614
50 | COR-L23 | 0.565
51 | COR-L 105 | 0.434
52 | LOU-NH91 | 0.788
53 | ChaGo-K-1 | 0.997
54 | NCI-H2170 | 0.982
55 | NCI-H2405 | 0.683
56 | HOP-62 | 0.367
57 | HCC-44 | 0.98
58 | SW 900 | 0.798
59 | LU99A | 0.611
60 | BEN | 1.25
61 | HARA | 0.852
62 | NCI-H1648 | 0.474
63 | HCC-78 | 0.709

Same assay, conditions: first compound 0.1 µM

Row | Cell Line | relative viability
64 | NCI-H522 | 0.783
65 | NCI-H727 | 0.336
66 | NCI-H1650 | 0.559
67 | NCI-H1993 | 0.555
68 | SW 1573 | 0.476
69 | NCI-H838 | 0.5
70 | LCLC-103H | 0.66
71 | NCI-H520 | 0.574
72 | NCI-H2126 | 0.65
73 | EMC-BAC-2 | 1.08
74 | NCI-H2085 | 0.439
75 | HCC-366 | 0.364
76 | NCI-H1666 | 0.861
77 | NCI-H596 | 0.821
78 | LK-2 | 0.525
79 | NCI-H2087 | 0.175
80 | NCI-H2342 | 0.87

Row | Cell Line | relative viability
81 | SK-MES-1 | 0.569
82 | H3255 | 0.576
83 | COR-L23 | 0.486
84 | COR-L 105 | 0.437
85 | LOU-NH91 | 0.802
86 | ChaGo-K-1 | 0.879
87 | NCI-H2170 | 0.9
88 | NCI-H2405 | 0.646
89 | HOP-62 | 0.41
90 | HCC-44 | 1.09
91 | SW 900 | 0.762
92 | LU99A | 0.6
93 | BEN | 0.986
94 | HARA | 0.947
95 | NCI-H1648 | 0.481
96 | HCC-78 | 0.703

Same assay, conditions: first compound 0.3162 µM

Row | Cell Line | relative viability
97 | NCI-H522 | 0.667
98 | NCI-H727 | 0.347
99 | NCI-H1650 | 0.51
100 | NCI-H1993 | 0.464
101 | SW 1573 | 0.381
102 | NCI-H838 | 0.453
103 | LCLC-103H | 0.642
104 | NCI-H520 | 0.322
105 | NCI-H2126 | 0.578
106 | EMC-BAC-2 | 0.848
107 | NCI-H2085 | 0.427
108 | HCC-366 | 0.334
109 | NCI-H1666 | 0.819
110 | NCI-H596 | 0.785
111 | LK-2 | 0.686
112 | NCI-H2087 | 0.223
113 | NCI-H2342 | 0.941

Row | Cell Line | relative viability
114 | SK-MES-1 | 0.465
115 | H3255 | 0.427
116 | COR-L23 | 0.382
117 | COR-L 105 | 0.46
118 | LOU-NH91 | 0.695
119 | ChaGo-K-1 | 0.814
120 | NCI-H2170 | 0.865
121 | NCI-H2405 | 0.598
122 | HOP-62 | 0.387
123 | HCC-44 | 1.07
124 | SW 900 | 0.545
125 | LU99A | 0.524
126 | BEN | 1.03
127 | HARA | 0.652
128 | NCI-H1648 | 0.417
129 | HCC-78 | 0.69

Same assay, conditions: first compound 1 µM

Row | Cell Line | relative viability
130 | NCI-H522 | 0.82
131 | NCI-H727 | 0.371
132 | NCI-H1650 | 0.551
133 | NCI-H1993 | 0.507
134 | SW 1573 | 0.33
135 | NCI-H838 | 0.494
136 | LCLC-103H | 0.675
137 | NCI-H520 | 0.2
138 | NCI-H2126 | 0.61
139 | EMC-BAC-2 | 0.913
140 | NCI-H2085 | 0.59
141 | HCC-366 | 0.293
142 | NCI-H1666 | 0.878
143 | NCI-H596 | 0.878
144 | LK-2 | 0.869
145 | NCI-H2087 | 0.174
146 | NCI-H2342 | 0.957
147 | SK-MES-1 | 0.503
148 | H3255 | 0.532
149 | COR-L23 | 0.373
150 | COR-L 105 | 0.499
151 | LOU-NH91 | 0.659
152 | ChaGo-K-1 | 0.78
153 | NCI-H2170 | 1.11
154 | NCI-H2405 | 0.604
155 | HOP-62 | 0.364
156 | HCC-44 | 1.05
157 | SW 900 | 0.891
